# From the supplement of paper PMC11451515
# System: SEM cells
# Assay: cell viability relative to DMSO control; higher = less cytotoxic
# Conditions: 48 h
# Summary of the method: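 Before seeding, each leukemia line was adapted for at least four passages in each medium. NOMO1 or SEM cells (500 cells/well) and P12-Ichikawa cells (1000 cells/well) went into 1536-well plates at 5 μl, then received library compounds in DMSO by pin dosing across 11 threefold concentrations, 47 μM to 0.79 nM. Readout was CellTiter-Glo One luminescence after 48 h at 37°C, and viability is given as a per-plate percentage of DMSO wells, with cell-free wells as background.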
# [1] = HPLM + 10% dialyzed FBS, 0.000781 µM
# [2] = HPLM + 10% dialyzed FBS, 0.00234 µM
# [3] = HPLM + 10% dialyzed FBS, 0.00702 µM
# [4] = HPLM + 10% dialyzed FBS, 0.0211 µM
# [5] = HPLM + 10% dialyzed FBS, 0.0632 µM
# [6] = HPLM + 10% dialyzed FBS, 0.19 µM
# [7] = HPLM + 10% dialyzed FBS, 0.569 µM
# [8] = HPLM + 10% dialyzed FBS, 1.71 µM
# [9] = HPLM + 10% dialyzed FBS, 5.12 µM
# [10] = HPLM + 10% dialyzed FBS, 15.4 µM
# [11] = HPLM + 10% dialyzed FBS, 46.1 µM
# [12] = RPMI 5 mM glucose + 10% FBS, 0.000781 µM
# [13] = RPMI 5 mM glucose + 10% FBS, 0.00234 µM
# [14] = RPMI 5 mM glucose + 10% FBS, 0.00702 µM
# [15] = RPMI 5 mM glucose + 10% FBS, 0.0211 µM
# [16] = RPMI 5 mM glucose + 10% FBS, 0.0632 µM
# [17] = RPMI 5 mM glucose + 10% FBS, 0.19 µM
# [18] = RPMI 5 mM glucose + 10% FBS, 0.569 µM
# [19] = RPMI 5 mM glucose + 10% FBS, 1.71 µM
# [20] = RPMI 5 mM glucose + 10% FBS, 5.12 µM
# [21] = RPMI 5 mM glucose + 10% FBS, 15.4 µM
# [22] = RPMI 5 mM glucose + 10% FBS, 46.1 µM
# [23] = RPMI 5 mM glucose + 10% dialyzed FBS, 0.000781 µM
# [24] = RPMI 5 mM glucose + 10% dialyzed FBS, 0.00234 µM
# [25] = RPMI 5 mM glucose + 10% dialyzed FBS, 0.00702 µM
# [26] = RPMI 5 mM glucose + 10% dialyzed FBS, 0.0211 µM
# [27] = RPMI 5 mM glucose + 10% dialyzed FBS, 0.0632 µM
# [28] = RPMI 5 mM glucose + 10% dialyzed FBS, 0.19 µM
# [29] = RPMI 5 mM glucose + 10% dialyzed FBS, 0.569 µM
# [30] = RPMI 5 mM glucose + 10% dialyzed FBS, 1.71 µM
# [31] = RPMI 5 mM glucose + 10% dialyzed FBS, 5.12 µM
# [32] = RPMI 5 mM glucose + 10% dialyzed FBS, 15.4 µM
# [33] = RPMI 5 mM glucose + 10% dialyzed FBS, 46.1 µM
Structure (SMILES),cell viability [1],cell viability [2],cell viability [3],cell viability [4],cell viability [5],cell viability [6],cell viability [7],cell viability [8],cell viability [9],cell viability [10],cell viability [11],cell viability [12],cell viability [13],cell viability [14],cell viability [15],cell viability [16],cell viability [17],cell viability [18],cell viability [19],cell viability [20],cell viability [21],cell viability [22],cell viability [23],cell viability [24],cell viability [25],cell viability [26],cell viability [27],cell viability [28],cell viability [29],cell viability [30],cell viability [31],cell viability [32],cell viability [33]
O=C(C1CC1)N1CC[C@@H](Cn2c(-c3ccc(-c4ccc5occc5c4)cc3)nc3cnccc32)C1,94.6%,91.1%,106%,108%,98.8%,107%,115%,108%,104%,121%,102%,73.9%,89.5%,99.9%,97.9%,108%,101%,99.9%,110%,101%,103%,85.9%,113%,102%,101%,111%,112%,119%,129%,121%,108%,114%,108%
CCC[C@@H](C=O)NC(=O)[C@H](CC(C)C)NC(=O)[C@H](CC(C)C)NC(=O)OCc1ccccc1,107%,111%,106%,121%,124%,117%,132%,92.7%,8.49%,8.38%,6.36%,105%,103%,125%,111%,129%,130%,55.3%,8.42%,8.05%,8.14%,6.25%,97.6%,101%,120%,116%,134%,119%,118%,45.7%,9.18%,8.63%,6.53%
O=C(O)CCNc1cc(N2CCc3ccccc3CC2)nc(-c2ccccn2)n1,123%,120%,130%,127%,139%,144%,129%,133%,121%,129%,139%,105%,124%,123%,118%,121%,103%,103%,95.9%,99.2%,115%,76.9%,112%,116%,127%,110%,116%,120%,130%,112%,101%,120%,99.6%
COc1cccc2c(NCc3ccccc3)nc(-n3c(N)nc4ccccc43)nc12,81.2%,88.4%,104%,93.6%,89.1%,90.6%,83.2%,92.2%,64.1%,29.6%,8.4%,95.2%,92.8%,98.7%,97.5%,94.8%,87.6%,95%,72.1%,54.9%,24.3%,7.18%,81.8%,73.7%,91.9%,99.8%,111%,106%,85.9%,76.5%,65.1%,45.2%,9.78%
CCc1ccc(C(=O)Nc2cc(CN3CCN(C)CC3)cc(C(F)(F)F)c2)cc1C#Cc1cnc2ccnn2c1,121%,113%,122%,126%,116%,128%,77.4%,122%,109%,73.7%,74.4%,110%,118%,114%,109%,111%,106%,98.3%,116%,95.9%,94.1%,71.9%,,,,,,,,,,,
O=P1(N(CCCl)CCCl)NCCCO1 (configuration not stated),113%,104%,96.5%,110%,110%,114%,92.8%,111%,84.8%,29.5%,17.9%,,,,,,,,,,,,96.6%,95.6%,98.6%,119%,99.7%,102%,109%,84%,80.5%,20.2%,11.4%
C[C@@H](NCc1cc2ccccc2[nH]1)c1cccc2ccccc12,80%,80.5%,86.2%,83.3%,77.7%,107%,89.7%,95.9%,89.2%,89.7%,41.9%,84.1%,86.6%,87.2%,90.3%,74.5%,92.2%,97.5%,84.4%,92.9%,85.9%,39.5%,90%,84.1%,86%,82.9%,71.7%,101%,93.3%,93%,93.1%,85.6%,57.9%
NC(=O)c1cnc(-c2ccc(C3(N)CCC3)cc2)c(-c2ccccc2)c1,110%,120%,137%,111%,111%,127%,133%,90.7%,73.2%,50.3%,30.9%,120%,134%,123%,106%,108%,127%,130%,85.1%,78%,43.2%,24.5%,121%,125%,127%,120%,123%,120%,133%,91.5%,67%,43.5%,35.9%
